Results: patent US20140030368A1, “COMPOSITION FOR PREVENTING OR TREATING A RESPIRATORY DISEASE CONTAINING A MIXED HERBAL EXTRACT OF CNIDIUM OFFICINALE ROOT AND POLYGONI CUSPIDATI ROOT” (WHANIN PHARMACEUTICAL CO., LTD., priority 2011, published 2014)

Experiments:
Format in all cases: in vivo, mice
IL-4 (interleukin-4) = assay: T cell-derived cytokine from lung tissue, ovalbumin-induced asthma/COPD model
Procedure: In order to examine whether the extract of the present invention has the effect of inhibiting adaptive immune responses in an ovalbumin (OVA)-induced asthma/chronic obstructive pulmonary disease model, the content of T cell-derived cytokines isolated from lung tissue was measured (see Seong Gyu Jeon et al., J. Allergy Clin. Immunol., 2007, 119, 831-837).
Specifically, a mixture of 75 μg of ovalbumin (OVA, Sigma) and 2 mg of aluminum hydroxide (Alum, Sigma) was intraperitoneally administered twice (days 0 and 7) into BALB/c female mice (6 weeks old; provided from Animal Laboratory in Biotech Center, Pohang University of Science & Technology) to sensitize the mice. At 14, 15 and 21 days after the first sensitization date, 50 μg of ovalbumin in PBS was challenged into the nasal cavity to induce asthma and chronic obstructive pulmonary disease. […]
Then, the lung tissue was finely cut with a blade and incubated with 5 ml of 1× Trypsin-EDTA and 1000 units of chollagenase at 37° C. for 10 […]. […] Then, the supernatant was collected, and the amount of cytokine IL-4 (interleukin-4) in the supernatant was measured using an ELISA (enzyme-linked immunosorbent assay).

[1] = tested on: inflammatory cells in pulmonary bronchoalveolar lavage; assay: Inflammatory cells in pulmonary bronchoalveolar lavage, LPS-induced asthma/COPD model; details: ovalbumin + LPS model
Procedure: Whether the extract of the present invention has the effect of inhibiting pulmonary bronchial inflammation in an LPS (lipopolysaccharide)-induced asthma/chronic obstructive pulmonary disease model was examined (see You-Sun Kim et al., J. Immunol., 2010, 185, 5648-5655; Jun-Pyo Choi et al., Allergy, 2010, 65, 1322-1330).
Specifically, a mixture of 75 μg of ovalbumin and 10 μg of LPS (Sigma) was intranasally administered a total of four times (days 0, 1, 2 and 7) into C57BL/6 male mice (6 weeks old; provided from the Animal Laboratory in Biotech Center, Pohang University of Science & Technology) to sensitize the mice. At 14, 15, 21 and 22 days from the first sensitization date, 50 μg of ovalbumin in PBS was challenged into the nasal cavity to induce asthma and chronic obstructive pulmonary disease. In addition, at 14, 15, 21 and 22 days at which challenge was performed, each of 1.0% CMC, 100, 200 and 400 mg/10 ml/kg of the extract of Example 2, 1 mg/10 ml/Kg of the comparative drug dexamethason and 10 mg/10 ml/kg of the comparative drug montelukast was orally administered twice a day. At 48 hours after the final challenge, the mice were anesthetized by intraperitoneal administration of ketamine and xylazine, and the organ of the mice was exposed and a catheter was inserted therein. Then, the bronchoalveoli were laved with each of 0.8 and 0.7 ml of sterile phosphate buffered saline to obtain a bronchoalveolar lavage. The bronchoalveolar lavage was centrifuged at 4° C. at 1000 rpm for 5 minutes, and the supernatant was removed. 2 ml of 10% FBS-IMDM (fetal bovine serum—Iscove's Modified Dulbecco's Medium) was added to the cells which were then counted. Then, the cells were cytospun, plated on a slide, and Diff-Quick stained. At least 300 inflammatory cells were observed by the staining method and classified into eosinophils, macrophages, neutrophils and lymphocytes, and the cell numbers of the groups treated with dexamethason, montelukast and the extract of Example 2 were compared with the ratios of inflammatory cells in the pulmonary bronchoalveolar lavages of the negative control group and the positive control group, thereby evaluating the inhibitory effects of the test materials against airway inflammation.

[2] = tested on: invasion of inflammatory cells into lung tissue; assay: Invasion of inflammatory cells into lung tissue, LPS-induced asthma/COPD model (H&E score); details: ovalbumin + LPS model
Procedure: Then, the lung was isolated, embedded with paraffin, sectioned to a thickness of […], and stained with H&E (hematoxylin-eosin). The invasion of inflammatory cells into a portion surrounding the airway was measured (see FIG. 3), and the inflammations of the airway and the pulmonary parenchyma were compared and scored.

[3] = tested on: IP-10 (interferon-gamma inducible protein-10); assay: Inflammatory mediator in bronchoalveolar lavage, LPS-induced asthma/COPD model (ELISA); details: ovalbumin + LPS model
Procedure: In order to examine whether the extract of the present invention has the effect of inhibiting inflammatory mediators in a bronchoalveolar lavage in an LPS-induced asthma/chronic obstructive pulmonary disease model, the expression pattern of the inflammatory mediator IP-10 (interferon-gamma inducible protein-10) in the bronchoalveolar lavage obtained in Test Example 7-2 was measured using an ELISA assay, and the results of the measurement are shown in Table 10 below.

[4] = tested on: anti-ovalbumin-specific IgG1 antibody; assay: Antigen-specific antibody in serum, LPS-induced asthma/COPD model (ELISA)
Procedure: In order to examine whether the extract of the present invention has the ability to produce an antigen-specific antibody in an LPS-induced asthma/chronic obstructive pulmonary disease model, the LPS-induced asthma/chronic obstructive pulmonary disease model was prepared by treatment with each of the extract of Example 2 and a comparative drug in the same manner as described in Test Example 7-1. At 48 hours after the final challenge, the mice were anesthetized by intraperitoneal injection with ketamine and xylazine. Then, blood was collected from the heart using a 1 ml syringe, and serum was separated from the blood by centrifugation. Then, an anti-ovalbumin-specific IgG1 antibody in the serum was measured according to an ELISA assay, and the results of the measurement are shown in Table 11 below.

[5] = tested on: co-stimulatory molecules CD40, CD80, CD86 and MHCII; assay: Co-stimulatory molecules in lung dendritic cells, E. coli-EV-induced model (FACS); details: 1 mg/kg twice a day, FIG. 5
Procedure: In order to examine whether the extract of the present invention has the effect of inhibiting the expression of co-stimulatory molecules in dendritic cells isolated from the lung tissue of an E. coli-EV-induced asthma/chronic obstructive pulmonary disease model, the following test was performed.
Specifically, a portion of the lung tissue obtained in Test Example 8-4 was cut finely with a blade, and then incubated with 5 ml of 1× Trypsin-EDTA and 1000 units of collagenase at 37 °C for 10 minutes. Then, the tissue was passed through a 100 μm mesh to collect only immune cells, and the cells were double-stained with each of the dendritic cell marker CD11c and the co-stimulatory molecules CD40, CD80, CD86 and MHCII (major histocompatibility complex II). Next, the expression levels of the co-stimulatory molecules in the dendritic cells were measured using FACS (fluorescence activated cell sorter), and the results of the measurement are shown in FIG. 5.

## C[C@@H]1C[C@H]2[C@@H]3CCC4=CC(=O)C=C[C@]4(C)[C@@]3(F)[C@@H](O)C[C@]2(C)[C@@]1(O)C(=O)CO [Dexamethason, dexamethason]
IL-4 (interleukin-4); 1 mg/kg b.i.d. oral
  IL-4 inhibition rate (%): 43.57%
[1]; 1 mg/kg b.i.d.
  Inhibition rate(%) Eosinophils: 51.1%
  Inhibition rate(%) Macrophages: 27.3%
  Inhibition rate(%) Total cells: 40.4%
[2]; 1 mg/kg b.i.d.
  Inhibition rate (%) of invasion of inflammatory cells into lung tissue: 28.87%
[3]; 1 mg/kg b.i.d.
  IP-10 inhibition rate (%): 4.09%
[4]; 1 mg/kg b.i.d.
  IGg1 in serum: 28.94
  IGg1 in serum, Inhibition rate (%): 57.35%
[5]
  expression levels of the co-stimulatory molecules in the dendritic cells: a decrease in the expression of CD86 and MHCII

## CC(C)(O)c1ccccc1CC[C@@H](SCC1(CC(=O)O)CC1)c1cccc(/C=C/c2ccc3ccc(Cl)cc3n2)c1 [montelukast]
IL-4 (interleukin-4); 10 mg/kg b.i.d. oral
  IL-4 inhibition rate (%): 14.07%
[1]; 10 mg/kg b.i.d.
  Inhibition rate(%) Eosinophils: 13.3%
  Inhibition rate(%) Macrophages: 8.2%
  Inhibition rate(%) Total cells: 10.6%
[2]; 10 mg/kg b.i.d.
  Inhibition rate (%) of invasion of inflammatory cells into lung tissue: 8.25%
[3]; 10 mg/kg b.i.d.
  IP-10 inhibition rate (%): 1.80%
[4]; 10 mg/kg b.i.d.
  IGg1 in serum: 44.84
  IGg1 in serum, Inhibition rate (%): 33.91%
